According to patent US9409905B2, “Antibacterial compounds and methods for use” (PTC THERAPEUTICS, INC., priority 2011, dated 2016):
Values after ≈ are worked out from the molar mass of the structure shown.

What was measured:
A. baumannii MXX2240 = experiment: Antibacterial activity, MIC, resistant strain (Table 4); type: cell-based; settings: Acinetobacter baumannii, MXX2240; resistant A. baumannii MMX2240, multi-drug resistant clinical isolate; read-out: MIC, MMX2240
In short: (§1)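 Broth microdilution; MIC (μg/mL) = lowest concentration with no macroscopically visible growth. Resistant strains: multi-drug resistant clinical isolates.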

K. pneumoniae MXX1232 = experiment: as above; type: cell-based; settings: Klebsiella pneumoniae, MXX1232; resistant K. pneumoniae MMX1232, multi-drug resistant clinical isolate; read-out: MIC, MMX1232
In short: as §1

[1] = system: Moraxella catarrhalis (M. catarrhalis) 25238; experiment: Antibacterial activity, MIC (Table 7); type: cell-based
In short: (§2)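 Read-out: absence of macroscopically visible growth. The lowest inhibiting concentration from the microbroth dilution series is reported as MIC in μg/mL.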

[2] = system: Klebsiella pneumoniae (K. pneumoniae) 35657; experiment: Antibacterial activity, MIC (Table 4); type: cell-based; settings: K. pneumoniae 35657, read-out: MIC, 35657
In short: as §1

[3] = system: Acinetobacter baumannii (A. baumannii) BAA747; experiment: Antibacterial activity, MIC (Table 4); type: cell-based; settings: A. baumannii BAA747, read-out: MIC, BAA747
In short: as §1

[4] = system: Pseudomonas aeruginosa (P. aeruginosa) 27853; experiment: Antibacterial activity, MIC (Table 5); type: cell-based; settings: P. aeruginosa 27853, read-out: MIC, 27853
In short: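 Compounds are serially diluted in broth and inoculated with the organism. Growth is then inspected macroscopically, and the lowest concentration showing none is taken as the MIC (μg/mL).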

[5] = system: Haemophilus influenzae (H. influenzae) 49247; experiment: Antibacterial activity, MIC (Table 6); type: cell-based
In short: as §2

[6] = system: Neisseria meningitidis (N. meningitidis) 13090; experiment: Antibacterial activity, MIC (Table 8); type: cell-based
In short: as §2

E. coli LZ3111 = experiment: Antibacterial activity, MIC, quinolone resistant strain (Table 2); type: cell-based; settings: Escherichia coli, LZ3111, read-out: MIC LZ3111
In short: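 Strain carries mutations conferring high-level quinolone resistance; tested by microbroth dilution, MIC recorded in μg/mL as lowest concentration preventing visible growth.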

E. coli 25922 = experiment: Antibacterial activity, microbroth dilution MIC (Table 1); type: cell-based, Escherichia coli; settings: Escherichia coli; microbroth dilution; control Gram-negative E. coli 25922 strain; read-out: MIC, 25922
In short: (§3)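 Potency is reported as minimum inhibitory concentration in μg/mL, determined by broth microdilution as the lowest level of compound that stops growth visible to the eye.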

E. coli ELZ4251 = experiment: Antibacterial activity, MIC, multi-drug resistant clinical isolate (Table 3); type: cell-based; settings: Escherichia coli
In short: (§4)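 Microbroth dilution. Endpoint: absence of macroscopically visible growth. Value = MIC, μg/mL.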

E. coli ELZ4000 = experiment: as above; type: cell-based; settings: Escherichia coli, ELZ4000, read-out: MIC ELZ4000
In short: as §4

[7] = system: Escherichia coli (E. coli) BAS849; experiment: Antibacterial activity, microbroth dilution MIC (Table 1); type: cell-based; settings: microbroth dilution, super sensitive Gram-negative E. coli BAS849, read-out: MIC, BAS849
In short: as §3

[8] = system: Staphylococcus aureus (S. aureus) 29213; experiment: as above; type: cell-based; settings: microbroth dilution, Gram-positive S. aureus 29213, read-out: MIC, 29213
In short: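 Read-out: visual absence of growth. The lowest concentration meeting this gives the MIC, expressed in μg/mL, with microbroth dilution as the method.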

Row | Structure (SMILES) | MIC (A. baumannii MXX2240) [µg/mL] | MIC (K. pneumoniae MXX1232) [µg/mL] | MIC [1] [µg/mL] | MIC [2] [µg/mL] | MIC [3] [µg/mL] | MIC [4] [µg/mL] | MIC [5] [µg/mL] | MIC [6] [µg/mL] | MIC (E. coli LZ3111) [µg/mL] | MIC (E. coli 25922) [µg/mL] | MIC (E. coli ELZ4251) [µg/mL] | MIC (E. coli ELZ4000) [µg/mL] | MIC [7] [µg/mL] | MIC [8] [µg/mL]
1 | CCc1c(-c2ccc3c(c2)cc(CN2C[C@H]4CCC[C@@H](NC)[C@H]4C2)n3C)[nH]c(=O)c(C(=O)O)c1O [Cpd 282, 5-ethyl-4-hydroxy-6-(1-methyl-2-(((3aR,4R,7aS)-4-(methylamino)-1H-isoindol-2(3H,3aH,4H,5H,6H,7H,7aH)-yl)methyl)-1H-indol-5-yl)-2-oxo-1,2-dihydropyridine-3-carboxylic acid] | 12.5 to 150 (≈ 26.1 to 313 µM) | 12.5 to 150 (≈ 26.1 to 313 µM) | 3.5 to 12.5 (≈ 7.31 to 26.1 µM) | 1 to 3.5 (≈ 2.09 to 7.31 µM) | 12.5 to 150 (≈ 26.1 to 313 µM) | 12.5 to 150 (≈ 26.1 to 313 µM) | 1 to 3.5 (≈ 2.09 to 7.31 µM) | 1 to 3.5 (≈ 2.09 to 7.31 µM) | 1 to 3.5 (≈ 2.09 to 7.31 µM) | < 1 | 3.5 to 12.5 (≈ 7.31 to 26.1 µM) | 12.5 to 150 (≈ 26.1 to 313 µM) | < 1 | 12.5 to 150 (≈ 26.1 to 313 µM)
2 | CCc1c(-c2ccc3c(c2)cc(CN2CCC(N(C)C)CC2)n3C)[nH]c(=O)c(C(=O)O)c1O [Cpd 248, 6-(2-((4-(dimethylamino)piperidin-1-yl)methyl)-1-methyl-1H-indol-5-yl)-5-ethyl-4-hydroxy-2-oxo-1,2-dihydropyridine-3-carboxylic acid] | 12.5 to 150 (≈ 27.6 to 331 µM) | 12.5 to 150 (≈ 27.6 to 331 µM) | 1 to 3.5 (≈ 2.21 to 7.73 µM) | 1 to 3.5 (≈ 2.21 to 7.73 µM) | 1 to 3.5 (≈ 2.21 to 7.73 µM) | 12.5 to 150 (≈ 27.6 to 331 µM) | < 1 | < 1 | 3.5 to 12.5 (≈ 7.73 to 27.6 µM) | < 1 | 12.5 to 150 (≈ 27.6 to 331 µM) | 12.5 to 150 (≈ 27.6 to 331 µM) | < 1 | 3.5 to 12.5 (≈ 7.73 to 27.6 µM)
3 | CCc1c(-c2ccc3c(c2)cc(CNCC2CC2)n3C)[nH]c(=O)c(C(=O)O)c1O.Cl [Cpd 223, 6-(2-((cyclopropylmethylamino)methyl)-1-methyl-1H-indol-5-yl)-5-ethyl-4-hydroxy-2-oxo-1,2-dihydropyridine-3-carboxylic acid hydrochloride] | 1 to 3.5 | 12.5 to 150 | < 1 | 3.5 to 12.5 | < 1 | 3.5 to 12.5 | < 1 | < 1 | 1 to 3.5 | < 1 | 12.5 to 150 | 3.5 to 12.5 | < 1 | 3.5 to 12.5
4 | CCc1c(-c2ccc3c(c2)cc(CN2CCC[C@H](NC)C2)n3C)[nH]c(=O)c(C(=O)O)c1O [Cpd 257, (S)-5-ethyl-4-hydroxy-6-(1-methyl-2-((3-(methylamino)piperidin-1-yl)methyl)-1H-indol-5-yl)-2-oxo-1,2-dihydropyridine-3-carboxylic acid] | 12.5 to 150 (≈ 28.5 to 342 µM) | 12.5 to 150 (≈ 28.5 to 342 µM) | 3.5 to 12.5 (≈ 7.98 to 28.5 µM) | 3.5 to 12.5 (≈ 7.98 to 28.5 µM) | 12.5 to 150 (≈ 28.5 to 342 µM) | 12.5 to 150 (≈ 28.5 to 342 µM) | 3.5 to 12.5 (≈ 7.98 to 28.5 µM) | 1 to 3.5 (≈ 2.28 to 7.98 µM) | 3.5 to 12.5 (≈ 7.98 to 28.5 µM) | 3.5 to 12.5 (≈ 7.98 to 28.5 µM) | 12.5 to 150 (≈ 28.5 to 342 µM) | 12.5 to 150 (≈ 28.5 to 342 µM) | < 1 | 12.5 to 150 (≈ 28.5 to 342 µM)
5 | CCc1c(-c2ccc3c(c2)cc(CN2CCCCC2)n3C)[nH]c(=O)c(C(=O)O)c1O [Cpd 192, 5-ethyl-4-hydroxy-6-(1-methyl-2-(piperidin-1-ylmethyl)-1H-indol-5-yl)-2-oxo-1,2-dihydropyridine-3-carboxylic acid] | 1 to 3.5 (≈ 2.44 to 8.55 µM) | 12.5 to 150 (≈ 30.5 to 366 µM) | < 1 | 1 to 3.5 (≈ 2.44 to 8.55 µM) | 1 to 3.5 (≈ 2.44 to 8.55 µM) | 12.5 to 150 (≈ 30.5 to 366 µM) | < 1 | < 1 | 1 to 3.5 (≈ 2.44 to 8.55 µM) | < 1 | 3.5 to 12.5 (≈ 8.55 to 30.5 µM) | 12.5 to 150 (≈ 30.5 to 366 µM) | < 1 | 3.5 to 12.5 (≈ 8.55 to 30.5 µM)
6 | CCNCc1cc2cc(-c3[nH]c(=O)c(C(=O)O)c(O)c3CC)ccc2n1C [Cpd 165, 5-ethyl-6-(2-((ethylamino)methyl)-1-methyl-1H-indol-5-yl)-4-hydroxy-2-oxo-1,2-dihydropyridine-3-carboxylic acid] | 3.5 to 12.5 (≈ 9.47 to 33.8 µM) | 12.5 to 150 (≈ 33.8 to 406 µM) | < 1 | < 1 | < 1 | 3.5 to 12.5 (≈ 9.47 to 33.8 µM) | < 1 | < 1 | 1 to 3.5 (≈ 2.71 to 9.47 µM) | < 1 | 1 to 3.5 (≈ 2.71 to 9.47 µM) | 3.5 to 12.5 (≈ 9.47 to 33.8 µM) | < 1 | 3.5 to 12.5 (≈ 9.47 to 33.8 µM)
